# Test results from US20260007681A1, “INDOLE DERIVATIVES AS ESTROGEN RECEPTOR DEGRADERS” (REGENTS OF THE UNIVERSITY OF MICHIGAN, priority 2022, published 2026).
# Counter-ions that a name gives are not always drawn. Like-named read-outs stand apart in the source and are kept apart here.
# Legend:
# ER in MCF-7 cells = ER in MCF-7 cells (Homo sapiens (Human), UniProt P03372); assay: In-cell western (ICW) ER degradation assay in MCF-7 cells (Compounds A1-A70); type: cell-based; details: for DC50: ER degradation, 0.02 to 300 nM, read-out: MCF7 ICW DC50
# Description: (§1) ERa degradative activity of compounds can be assessed in MCF-7 and T47D Cells. MCF-7 and T47D cell are seeded and are subsequently treated with the compounds at certain concentrations (e.g., 0.02 to 300 nM). DMSO can be used as vehicle control. Cells are fixed and are blocked with Intercept (PBS) Blocking Buffer (e.g., Li—COR, Odyssey Blocking Buffer), and are stained with ER (e.g., 1:500, Cell signaling) primary antibody for overnight at cold room. Secondary Antibody (e.g., IRDye 800CW Goat anti-Rabbit IgG) and CellTag 700 Stain are added in Intercept (PBS) Blocking Buffer. Finally, cell plate is placed in incubator to dry. Image and signal are captured on Odyssey® DLx Imaging System.
# (§2) Day 3: After 16 hrs of compounds treatment, cells were fixed by 4% PFA and permeabilized with elution buffer (0.1% Triton X-100 in 1% PBS Solution). Subsequently, cells were blocked with Intercept (PBS) Blocking Buffer (Li—COR, Odyssey Blocking Buffer), and were stained with ER (1:500, Cell signaling) primary antibody for overnight at cold room.
# (§3) Day 4: Remove the buffer, add IRDye 800CW Goat anti-Rabbit IgG Secondary Antibody (1:2000) and CellTag 700 Stain (1:500) in Intercept (PBS) Blocking Buffer. Finally, cell plate is placed in incubator to dry. Image and signal were captured on Odyssey® DLx Imaging System.
# ER in T47D cells = ER in T47D cells (Homo sapiens (Human), UniProt P03372); assay: In-cell western (ICW) ER degradation assay in T47D cells (Compounds A1-A70); type: cell-based; details: for Dmax: T47D, read-out: T47D ICW Dmax (%); for DC50: ER degradation, 0.02 to 300 nM
# Description: as §1, §2, §3
# CRBN/DDB1 = CRBN/DDB1 (Homo sapiens (Human), UniProt Q96SW2); type: binding
# Description: The binding potency was determined using H-TRF assay technology (Perkin Elmer). Compounds were serially diluted in DMSO and 0.2 μL volume was transferred to white 384-well plate.
# [1] = MCF7, maximal ER degradation, MCF-7 cells, 16 hrs treatment, read-out: MCF7 ICW Dmax (%)
# [2] = maximal ER degradation, T47D cells, 16 hrs treatment
# [3] = His tagged CRBN+DDB-DLS7+CXU4, Cy5-labeled Thalidomide probe, one hour incubation, read-out: CRBN HTRF IC50
# Chain of ER in T47D cells (P03372 whole entry): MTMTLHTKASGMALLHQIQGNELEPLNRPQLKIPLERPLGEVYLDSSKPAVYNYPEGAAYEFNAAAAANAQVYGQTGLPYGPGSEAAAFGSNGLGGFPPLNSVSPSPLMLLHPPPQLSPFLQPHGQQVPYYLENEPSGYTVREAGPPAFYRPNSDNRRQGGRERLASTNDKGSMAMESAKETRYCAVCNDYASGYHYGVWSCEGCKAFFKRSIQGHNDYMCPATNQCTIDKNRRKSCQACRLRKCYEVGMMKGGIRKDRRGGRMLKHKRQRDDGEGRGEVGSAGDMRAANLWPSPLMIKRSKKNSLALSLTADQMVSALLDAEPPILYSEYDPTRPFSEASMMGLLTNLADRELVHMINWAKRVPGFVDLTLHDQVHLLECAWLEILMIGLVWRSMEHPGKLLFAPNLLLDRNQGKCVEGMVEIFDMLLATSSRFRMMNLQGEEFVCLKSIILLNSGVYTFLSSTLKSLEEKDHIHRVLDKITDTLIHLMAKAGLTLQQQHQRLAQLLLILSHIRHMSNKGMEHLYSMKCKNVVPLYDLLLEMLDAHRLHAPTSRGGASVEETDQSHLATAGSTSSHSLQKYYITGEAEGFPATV
# Chain of ER in MCF-7 cells (P03372 whole entry): as above
Structure (SMILES),"Dmax (ER in MCF-7 cells; MCF7, read-out: MCF7 ICW Dmax (%))",Dmax (ER in T47D cells),IC50 (CRBN/DDB1),"DC50 (ER in MCF-7 cells; MCF-7 cells, 16 hrs treatment)",Dmax (ER in MCF-7 cells; [1]),"DC50 (ER in T47D cells; T47D cells, 16 hrs treatment)",Dmax (ER in T47D cells; [2]),IC50 (CRBN/DDB1; [3])
"COc1cc(N2CCC3(CCN(C(=O)CN4Cc5cnc(C(=O)N[C@H]6CCC(=O)NC6=O)cc5C4)CC3)CC2)ccc1[C@@H]1c2[nH]c3ccccc3c2C[C@@H](C)N1CC(F)F [Compound A50, 2-(2-(9-(4-((1R,3R)-2-(2,2-difluoroethyl)-3-methyl-2,3,4,9-tetrahydro-1H-pyrido[3,4-b]indol-1-yl)-3-methoxyphenyl)-3,9-diazaspiro[5.5]undecan-3-yl)-2-oxoethyl)-N—((S)-2,6-dioxopiperidin-3-yl)-2,3-dihydro-1H-pyrrolo[3,4-c]pyridine-6-carboxamide formate]",50 to 75%,50 to 75%,0.5 to 5 µM,,,,,
"C[C@H]1Cc2c([nH]c3ccccc23)[C@H](c2cnc(N3CCC4(CC3)C[C@@H](CN3CCC(c5ccc(N[C@@H]6CCC(=O)NC6=O)cc5)CC3)CO4)nc2)N1CC(F)F [Compound A66, (R)-3-((4-(1-(((S)-8-(5-((1S,3S)-2-(2,2-difluoroethyl)-3-methyl-2,3,4,9-tetrahydro-1H-pyrido[3,4-b]indol-1-yl)pyrimidin-2-yl)-1-oxa-8-azaspiro[4.5]decan-3-yl)methyl)piperidin-4-yl)phenyl)amino)piperidine-2,6-dione]",,,,< 0.001 µM,50 to 75%,0.001 to 0.01 µM,> 75%,0.05 to 0.5 µM
"C[C@@H]1Cc2c([nH]c3ccccc23)[C@@H](c2cnc(N3CCO[C@H](CN4CCN5c6cc7c(cc6OC[C@@H]5C4)C(=O)N(C4CCC(=O)NC4=O)C7)C3)nc2)N1CC(C)(C)F (stereo partly drawn) [Compound A22, 3-((S)-3-(((R)-4-(5-((1R,3R)-2-(2-fluoro-2-methylpropyl)-3-methyl-2,3,4,9-tetrahydro-1H-pyrido[3,4-b]indol-1-yl)pyrimidin-2-yl)morpholin-2-yl)methyl)-8-oxo-1,2,3,4,4a,5,8,10-octahydro-9H-pyrazino[1′,2′:4,5][1,4]oxazino[2,3-f]isoindol-9-yl)piperidine-2,6-dione]",,,,0.001 to 0.01 µM,25 to 50%,< 0.001 µM,25 to 50%,0.05 to 0.5 µM
"COc1cc(N2CCC(CN3CCN4c5cc6c(cc5OC[C@@H]4C3)C(=O)N([C@@H]3CCC(=O)NC3=O)C6)CC2)ccc1[C@H]1c2[nH]c3ccccc3c2C[C@H](C)N1CC(F)F [Compound A44, (R)-3-((S)-3-((1-(4-((1S,3S)-2-(2,2-difluoroethyl)-3-methyl-2,3,4,9-tetrahydro-1H-pyrido[3,4-b]indol-1-yl)-3-methoxyphenyl)piperidin-4-yl)methyl)-8-oxo-1,2,3,4,4a,5,8,10-octahydro-9H-pyrazino[1′,2′:4,5][1,4]oxazino[2,3-f]isoindol-9-yl)piperidine-2,6-dione]",,,,< 0.001 µM,50 to 75%,< 0.001 µM,50 to 75%,0.05 to 0.5 µM
"C[C@H]1Cc2c([nH]c3ccccc23)[C@H](c2ccc(N3CCC(CN4CCN5c6cc7c(cc6OC[C@H]5C4)C(=O)N([C@@H]4CCC(=O)NC4=O)C7)CC3)cn2)N1CC(F)(F)F [Compound A64, (R)-3-((R)-3-((1-(6-((1R,3S)-3-methyl-2-(2,2,2-trifluoroethyl)-2,3,4,9-tetrahydro-1H-pyrido[3,4-b]indol-1-yl)pyridin-3-yl)piperidin-4-yl)methyl)-8-oxo-1,2,3,4,4a,5,8,10-octahydro-9H-pyrazino[1′,2′:4,5][1,4]oxazino[2,3-f]isoindol-9-yl)piperidine-2,6-dione]",,,,> 0.1 µM,< 25%,> 0.1 µM,< 25%,0.5 to 5 µM
